How the values were obtained:
Type in all cases: in vivo, maize cv. Lorenzo
[1] = system: maize plants; test: Heat stress experiment with maize plants, seed dressing with active substance
Text: Maize seeds cv. Lorenzo were dressed as in example 1 with the compound 4-cyclopropylaminocarbonyl-N-(2-methoxybenzoyl)benzenesulfonamide (=VIII-3) or treated only with solvent without active substance. The seedlings were raised for 10 days in the controlled-environment chamber under defined conditions, likewise as described in example 1.2×10 pots with maize plants were used for the heat stress experiment. The control group consisted of undressed plants (solvent), the test group of plants which had been dressed with active substance. To apply the heat stress conditions, both plant groups were placed for 2 days into a controlled-environment cabinet at 45′C, white light, long day (16 hours fight, 8 hours dark) and 70% atmospheric humidity. To avoid desiccation as the result of the high temperature, the plants were irrigated once per day from below by raising the water level in a tray. After the heat stress, it was observed that—especially in the control group—the shoots of many plants had collapsed and that the leaves were lying flat on the ground.
The experiment was valued quantitatively, taking into consideration the following criteria.
After the heat treatment, the plants which had collapsed were counted and the result per pot was assessed:
Thereafter, all plants were grown on for 2 weeks under standard conditions. Then, the length increment of the individual plants was measured, and the survival rate of the plants per pot was determined: […]

[2] = system: Zm.10097.1.A1_at expressed protein; test: Gene expression profiling (maize genome array), drought stress; details: vs unstressed solvent-dressed control
Procedure: (§1) Maize seeds cv. Lorenzo were dressed as described in example 1 with the compound VIII-3 (=4-cyclopropylaminocarbonyl-N-(2-methoxybenzoyl)benzenesulfonamide) or with solvent. The plants were raised for 10 days in a controlled-environment chamber (conditions: see example 1).
(§2) Thereafter, the plants were exposed to the following stress conditions: • (1) Heat stress: 6 h at 45° C. • (2) Drought stress: 7 days without irrigation, 24° C.
(§3) The control plants of the specific experimental group were kept under the standard conditions described in example 1 (temperature, irrigation).
(§4) After the stress treatment, the leaves of the stressed plants and of the unstressed control plants were harvested, shock-frozen in liquid nitrogen and stored at −80° C. until processed. All experiments were carried out in replications of in each case 2 pots.
(§5) The labeled RNA probes for the DNA chip hybridization were prepared as described in the protocols (Expression Analysis. Technical Manual) from Affymetrix (Affymetrix Inc., 3380 Central Expressway, Santa Clara, Calif., USA). First, total RNA was isolated from in each case 500 mg of the harvested leaves. In each case 10 μg of total RNA were used for the cDNA first- and second-strand synthesis. The cDNA was amplified with T7 polymerase and simultaneously labeled with biotin-UTP. In each case 20 μg of this biotinylated […] were employed for the hybridization of the maize genome array from Affymetrix. This DNA microarray contains DNA sequences whose totality represents 13339 genes. Thereafter, the DNA microarrays were washed in the Affymetrix Fluidics Station, stained with streptavidin/phycoerythrin (Molecular Probes, P/N S-866) and scanned with the appropriate Agilent Laser Scanner (Agilent Gene Array Scanner). The fluorescence data obtained were analyzed using Affymetrix's Microarray Suite 5 software. After the quality assurance had been performed, all DNA chip analyses were stored in a database. To determine relevant expression values (induction factors, repression factors), the absolute expression values of the genes from the respective stress experiments were compared with the values of the respective control experiments (i.e. without abiotic stress and solvent-dressing only), based on the scoring function predetermined by the Affymetrix software. The resulting 4 expression values per gene were averaged by calculating the median value. These median values are shown in the results tables as induction factors. Similarity comparisons of expression profiles of various experiments and cluster analyses were carried out using the “genedata expressionist” software from Genedata (Genedata, Maulbeerstr. 46, CH-4016 Basel, Switzerland).
(§6) The induction patterns derived from table 5 and which are shown directly by the resulting expression values show characteristic inductions by the action of the compound 4-cyclopropylaminocarbonyl-N-(2-methoxybenzoyl)benzenesulfonamide (=VIII-3), the effect on the putative N-carbamyl-L-amino acid amidohydrolase [Zm.11840.1.A1_at] and on the putative serine carboxypeptidase [Zm18994.2.A1-at] being most pronounced. • b) Under dried stress conditions, i.e. the tested maize plants (dressed with 2 mg a.i. 4-cyclopropylaminocarbonyl-N-(2-methoxybenzoyl)benzenesulfonamide/g seeds) were exposed to a temperature of 24° C. for 7 hours 7 days after germination.
(§7) • Condition A: drought stress (7 days, 24° C.) • Condition B: Seeds dressed with 4-cyclopropylaminocarbonyl-N-(2-methoxybenzoyl)benzenesulfonamide (VIII-3)/NO drought stress • Condition C: Seeds dressed with 4-cyclopropylaminocarbonyl-N-(2-methoxybenzoyl)benzenesulfonamide (VIII-3)+drought stress (7 days, 24° C.).

[3] = system: Zm.12035.1.A1_at similar to AT3G10120; test: as above; details: vs unstressed solvent-dressed control
Procedure: as §1, §2, §3, §4, §5, §6, §7

[4] = system: Zm.13229.1.S1_at NBS-LRR type disease resistance protein O2 (fragment); test: as above; details: vs unstressed solvent-dressed control
Procedure: as §1, §2, §3, §4, §5, §6, §7

[5] = system: Zm.18273.1.S1_at regulatory protein-like; test: as above; details: vs unstressed solvent-dressed control
Procedure: as §1, §2, §3, §4, §5, §6, §7

[6] = system: Zm.18682.1.A1_at unknown protein; test: as above; details: vs unstressed solvent-dressed control
Procedure: as §1, §2, §3, §4, §5, §6, §7

[7] = system: Zm.3633.4.A1_at wound induced protein (fragment); test: as above; details: vs unstressed solvent-dressed control
Procedure: as §1, §2, §3, §4, §5, §6, §7

[8] = system: Zm.485.1.A1_at non-symbiotic hemoglobin (HBT) (ZEAMP GLB1); test: as above; details: vs unstressed solvent-dressed control
Procedure: as §1, §2, §3, §4, §5, §6, §7

[9] = system: Zm.818.1.A1_at universal stress protein; test: as above; details: vs unstressed solvent-dressed control
Procedure: as §1, §2, §3, §4, §5, §6, §7

[10] = system: Zm.818.2.A1_at expressed protein; test: as above; details: vs unstressed solvent-dressed control
Procedure: as §1, §2, §3, §4, §5, §6, §7

[11] = seeds dressed, after heat stress
[12] = seeds dressed with VIII-3 (2 mg a.i./g seeds), NO drought stress
[13] = seeds dressed with VIII-3 + drought stress (7 days, 24° C.)

COc1ccccc1C(=O)NS(=O)(=O)c1ccc(C(=O)NC2CC2)cc1 [VIII-3, 4-cyclopropylaminocarbonyl-N-(2-methoxybenzoyl)benzenesulfonamide]
Interim score (collapsed plants) ([1]; +S/+H: seeds dressed, heat stress 2 days 45° C, one symbol per pot (10 pots)): ◯◯◯◯◯◯◯◯◯◯
"standing" of the plants after heat stress [1, 11]: considerably better
survival rate compared with the control group [1, 11]: significantly higher
induction factor Zm.10097.1.A1_at, Condition B [2, 12]: 1.27
induction factor Zm.10097.1.A1_at, Condition C [2, 13]: 3.29
induction factor Zm.12035.1.A1_at, Condition B [3, 12]: 0.90
induction factor Zm.12035.1.A1_at, Condition C [3, 13]: 3.66
induction factor Zm.13229.1.S1_at, Condition B [4, 12]: 1.02
induction factor Zm.13229.1.S1_at, Condition C [4, 13]: 3.39
induction factor Zm.18273.1.S1_at, Condition B [5, 12]: 0.95
induction factor Zm.18273.1.S1_at, Condition C [5, 13]: 2.91
induction factor Zm.18682.1.A1_at, Condition B [6, 12]: 1.12
induction factor Zm.18682.1.A1_at, Condition C [6, 13]: 4.19
induction factor Zm.3633.4.A1_at, Condition B [7, 12]: 0.74
induction factor Zm.3633.4.A1_at, Condition C [7, 13]: 3.03
induction factor Zm.485.1.A1_at, Condition B [8, 12]: 1.00
induction factor Zm.485.1.A1_at, Condition C [8, 13]: 5.49
induction factor Zm.818.1.A1_at, Condition B [9, 12]: 1.12
induction factor Zm.818.1.A1_at, Condition C [9, 13]: 8.47
induction factor Zm.818.2.A1_at, Condition B [10, 12]: 1.10
induction factor Zm.818.2.A1_at, Condition C [10, 13]: 5.40

Source: US9920383B2, “Active substances for increasing the stress defense in plants to abiotic stress, and methods of finding them” (Bayer Intellectual Property GMBH, priority 2005, dated 2018)
